Data: patent US6177438A, “Morphinan derivatives and pharmaceutical use thereof” (priority 1993, dated 2001)
Counter-ions that a name gives are not always drawn. Like-named read-outs stand apart in the source and are kept apart here.

Assays:
[1] = test system: extracted mouse vas deferens preparation; assay: Opioid activity test using an extracted mouse vas deferens preparation (suppression of electrically induced contractions); design: species or system male ddy mouse; details: electrical stimulus 0.1 Hz, 37° C.
Method: (§1) A male ddy mouse was used in this test. The vas deferens extracted from the animal was suspended in a Magnus tube filled with Krebes-Henseleit solution (NaCl 118 mM; KCl 4.7 mM; CaCl2 2.5 mM; KH2 PO4 1.1 mM; NaHCO3 25 mM; Glucose 11 mM) warmed to 37° C. and ventilated with 5% carbon dioxide and 95% oxygen. Electrical stimulus was performed at 0.1 Hz for 5.0 ms by means of ring-shaped platinum electrodes located above and below. Tissue contractions were recorded on a polygraph using an isometric transducer.
(§2) After adequately washing with nutrient solution and the contraction reaction stabilized, the μ agonist, naloxone, the δ agonist, NTI, or the κ agonist, norBNI, was added after which the test compound was again cumulatively added after roughly 20 minutes. The Ke value was calculated using the following calculation formula from the difference in the efficacies of both agonists.

[2] = biological target: T1, μ receptor (Mus musculus, UniProt P42866); assay: Opioid activity test using an extracted mouse vas deferens preparation, Ke with naloxone; design: species or system male ddy mouse; details: naloxone added
T1 construct: naloxone as mu antagonist (printed 'agonist')
T1 sequence (P42866 whole entry): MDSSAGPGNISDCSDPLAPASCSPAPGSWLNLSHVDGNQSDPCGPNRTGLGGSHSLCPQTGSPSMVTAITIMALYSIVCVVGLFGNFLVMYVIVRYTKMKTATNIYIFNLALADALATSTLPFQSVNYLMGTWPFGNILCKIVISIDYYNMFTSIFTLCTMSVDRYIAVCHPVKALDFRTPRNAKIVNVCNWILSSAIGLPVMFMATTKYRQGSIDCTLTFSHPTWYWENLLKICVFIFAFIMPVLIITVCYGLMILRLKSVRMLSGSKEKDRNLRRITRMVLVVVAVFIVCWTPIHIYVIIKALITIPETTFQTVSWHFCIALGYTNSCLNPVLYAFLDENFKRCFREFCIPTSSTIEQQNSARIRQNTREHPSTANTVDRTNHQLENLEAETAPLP
Method: as §1, §2
(§3) Ke=[Conc. of added agonist]/(IC50 ratio-1)
(§4) IC50 ratio=IC50 in the presence of agonist/IC50 in the absence of agonist

[3] = biological target: T2, δ receptor (Mus musculus, UniProt P32300); design: species or system male ddy mouse
T2 construct: The vas deferens extracted from the animal was suspended in a Magnus tube; from tissue; host or cells: mouse (male ddy) vas deferens
T2 sequence (P32300 whole entry): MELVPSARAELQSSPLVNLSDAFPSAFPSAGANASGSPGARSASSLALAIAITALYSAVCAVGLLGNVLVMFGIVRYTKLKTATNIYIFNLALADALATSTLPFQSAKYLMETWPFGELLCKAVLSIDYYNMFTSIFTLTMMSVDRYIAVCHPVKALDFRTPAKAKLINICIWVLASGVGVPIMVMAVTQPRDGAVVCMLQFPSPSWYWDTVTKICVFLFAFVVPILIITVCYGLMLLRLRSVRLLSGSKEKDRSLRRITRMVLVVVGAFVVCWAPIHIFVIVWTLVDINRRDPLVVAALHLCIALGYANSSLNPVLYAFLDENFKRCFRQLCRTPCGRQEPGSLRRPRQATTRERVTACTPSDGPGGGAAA

[4] = biological target: T3, κ receptor (Mus musculus, UniProt P33534); assay: Opioid activity test using an extracted mouse vas deferens preparation, Ke with norBNI; design: species or system male ddy mouse; details: for Ke, norBNI: κ, norBNI added; for receptor selectivity of agonist (κ): in words
T3 construct: from tissue; host or cells: mouse (male ddy) vas deferens
T3 sequence (P33534 whole entry): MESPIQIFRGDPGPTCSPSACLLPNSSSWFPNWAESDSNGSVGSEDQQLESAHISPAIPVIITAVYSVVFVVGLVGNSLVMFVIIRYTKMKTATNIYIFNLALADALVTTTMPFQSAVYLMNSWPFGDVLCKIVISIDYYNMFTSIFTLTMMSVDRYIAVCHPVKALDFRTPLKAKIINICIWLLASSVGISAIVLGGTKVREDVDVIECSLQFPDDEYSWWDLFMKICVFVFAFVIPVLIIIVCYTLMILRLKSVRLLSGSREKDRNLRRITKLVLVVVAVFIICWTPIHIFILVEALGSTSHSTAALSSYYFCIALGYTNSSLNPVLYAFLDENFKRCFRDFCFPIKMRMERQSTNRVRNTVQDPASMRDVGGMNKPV
Method: as §1, §2, §3, §4

[5] = Diuretic action (urine output for 5 hours after physiological saline loading in rats); format: in vivo, male Wistar rats; details: for ED (200% urine output) / ED (500% urine output): Rattus norvegicus, sc, 5 hours after saline 20 ml/kg p.o.; for ED (200% urine output): dose giving urine output of 200 (non-dosed group = 100); for ED (500% urine output): dose giving urine output of 500 (non-dosed group = 100)
Method: 7-8 week old male Wistar rats were used in this test after prohibiting from drinking water for 1 hour before the start of testing. After discharging any urine accumulated in the bladder by gently stimulating the lower abdomens of the animals, the drug was administered subcutaneously. After 30 minutes, the animals were then forcibly given 20 ml/kg of physiological saline orally. The animals were placed in metabolic cages immediately after administration of the drug (2 animals/cage) and urine output for 5 hours after loading with physiological saline was measured. Drug efficacy was expressed in the form of those doses resulting in urine outputs of 200 and 500, respectively, when the urine output of a non-dosed group was taken to be 100. Those doses were expressed as the ED200 and ED500 values, respectively.

[6] = test system: acetic acid-induced writhing in ddy mice; assay: animal or person; format: in vivo, 5 week old ddy mice; details: for ED50: s.c. 15 minutes before acetic acid
Method: 5 week old ddy mice were used in this test. After intraperitoneal administration of 0.1 ml of 0.6% aqueous acetic acid per 10 g of body weight, the number of writhing reactions that occurred in 10 minutes starting 10 minutes after administration was evaluated for the indicator. The test drug was administered subcutaneously into the backs of the animals 15 minutes before administration of acetic acid.

[7] = mouse vas deferens, δ, NTI added
[8] = Mus musculus, sc, read-out: ED50

SMILES	IC50 [1] [nM]	Ke, Naloxone [2] [nM]	Ke, NTI [3, 7] [nM]	Ke, norBNI [4] [nM]	receptor selectivity of agonist (δ) ([3]; mouse vas deferens, in words)	ED (200% urine output) [5] [µg/kg]	ED (500% urine output) [5] [µg/kg]	Diuretic action (in words) ([5]; s.c., from ED200 values)	ED50 [6] [µg/kg]	Ke, NTI [3] [nM]	receptor selectivity of agonist (κ) [4]	ED50 [6, 8] [µg/kg]	analgesic activity ([6]; s.c., in words)
CC(C)CN(C(=O)/C=C/c1cccc(C(F)(F)F)c1)[C@@H]1CC[C@@]2(O)[C@H]3Cc4ccc(O)c5c4[C@@]2(CCN3CC2CC2)[C@H]1O5 [Compound 166, 17-cyclopropylmethyl-3,14β-dihydroxy-4,5α-epoxy-6β-(N-isobutyl-3-trifluoromethylcinnamamido)morphinan 0.5 tartrate]	0.028	36.9	20.5	4.78	–	–	–	–	–	–	–	–	–
CN(C(=O)C#Cc1ccc(C(F)(F)F)cc1)[C@H]1CC[C@@]2(O)[C@H]3Cc4ccc(O)c5c4[C@@]2(CCN3CC2CC2)[C@H]1O5 [Compound 126, 17-Cyclopropylmethyl-3,14β-dihydroxy-4,5α-epoxy-6α-[N-methyl-3-(4-trifluoromethylphenyl)propiolamido]morphinan.cndot.0.5 tartrate]	0.969	40.2	0.0065	1.20	selective agonists for δ receptors	–	–	–	–	–	–	–	–
CN(C(=O)/C=C/c1ccc(Cl)cc1)[C@@H]1CC[C@@]2(O)[C@H]3Cc4ccc(O)c5c4[C@@]2(CCN3CC2CC2)[C@H]1O5 [Compound 152, 17-cyclopropylmethyl-3,14β-dihydroxy-4,5α-epoxy-6β-(N-methyl-4-chlorocinnamamido)morphinan hydrochloride]	–	17.5	–	0.039	–	0.71	9.53	extremely strong diuretic action	3.8	35.1	selective agonists for κ receptors	–	–
CN(C(=O)/C=C/c1cccc(Br)c1)[C@@H]1CC[C@@]2(O)[C@H]3Cc4ccc(O)c5c4[C@@]2(CCN3CC2CC2)[C@H]1O5 [Compound 151, 17-cyclopropylmethyl-3,14β-dihydroxy-4,5α-epoxy-6β-(N-methyl-3-bromocinnamamido)morphinan hydrobromide]	–	0.94	–	0.028	–	4.45	1560	–	–	1.65	selective agonists for κ receptors	4.1	–
Cc1cccc(C#CC(=O)N(C)[C@@H]2CC[C@@]3(O)[C@H]4Cc5ccc(O)c6c5[C@@]3(CCN4CC3CC3)[C@H]2O6)c1.Cl [Compound 172, 17-cyclopropylmethyl-3,14β-dihydroxy-4,5α-epoxy-6β-[N-methyl-3-(3-methylphenyl)propiolamido]morphinan hydrochloride]	–	16.16	17.57	0.163	–	3.23	3030	–	–	–	selective agonists for κ receptors	7.9	–
CN(C(=O)/C=C/c1cccc(Cl)c1)[C@@H]1CC[C@@]2(O)[C@H]3Cc4ccc(O)c5c4[C@@]2(CCN3CC2CC2)[C@H]1O5 [Compound 154, 17-cyclopropylmethyl-3,14β-dihydroxy-4,5α-epoxy-6β-(N-methyl-3-chlorocinnamamido)morphinan hydrochloride]	–	43.1	–	0.133	–	2.14	270	–	–	31.5	selective agonists for κ receptors	1	particularly strong analgesic activity
CN(C(=O)/C=C/c1ccsc1)[C@H]1CC[C@@]2(O)[C@H]3Cc4ccc(O)c5c4[C@@]2(CCN3CC2CC2)[C@H]1O5 [Compound 91, 17-cyclopropylmethyl-3,14β-dihydroxy-4,5α-epoxy-6α-[N-methyl-trans-3-(3-thienyl)acrylamido]morphinan.cndot.tartrate]	0.378	–	450	0.699	–	9.4	960	–	–	–	selective agonists for κ receptors	19	–
